Assay results as given in patent US20120251495A1, “PTERIN BASED THERAPIES FOR INFLAMMATORY CONDITIONS” (priority 2008, published 2012).

Assays:
[1] = test system: hepatitis B virus (HBV); assay: Liver HBV DNA by Southern blot hybridization in HBV transgenic mice; assay type: in vivo
Excerpt: Animals. Homozygous adult female and male transgenic HBV mice were used (20.6±2.8 g). The mice were originally obtained from Dr. Frank Chisari (Scripps Research Institute, La Jolla, Calif.) (Guidotti L G, Matzke B, Schaller H & Chisari F V. High-level hepatitis B virus replication in transgenic mice. J Virol 1995; 69:6158-6169) and were subsequently raised in the Biosafety Level 3 (BL-3) area of the AAALAC-accredited USU Laboratory Animal Research Center (LARC). The animals were derived from founder 1.3.32 (Guidotti L G, Matzke B, Schaller H & Chisari F V. High-level hepatitis B virus replication in transgenic mice. J Virol 1995; 69:6158-6169). This study was conducted in accordance with the approval of the Institutional Animal Care and Use Committee of Utah State University.
(§1) Experimental design. DCP was administered per os, once daily for 14 days to randomly assigned HBV transgenic mice at 23, 7.3, and 2.3 mg/(kg d). ADV was used as a positive control at 10 mg/(kg d) using the same treatment schedule and vehicle (0.4% CMC). On day 14, mice were euthanized to collect serum and liver samples to perform liver HBV DNA, liver core and serum HBe assays, serum cytokine/chemokine profiles, and IDO metabolite assays.
Liver HBV DNA assays. Southern blot hybridization and quantitative PCR (qPCR) were performed on liver tissues (Morrey J D, Motter N E, Tam B, Lay M & Fairman J. Efficacy of cationic lipid-DNA complexes (CLDC) on hepatitis B virus in transgenic mice. Antiviral Res 2008; 79:71-79). For Southern blot hybridization, the ratio of the viral DNA bands to the transgene band was used to determine the concentration of viral DNA per host DNA. This calculation was based upon the knowledge that there were 1.3 copies of the transgene present per host cell with this line of transgenic mice. The transgene was used as an internal indicator to calculate the pg of HBV DNA per μg of homozygous cellular host DNA. For qPCR, the assay was run with a series of 10-fold dilutions of pooled liver DNA from HBV transgenic mice to obtain a standard curve. Mean C(t) values were obtained for duplicates of each sample. The mean C(t) values of each sample were used to obtain the log relative DNA values using a formula of the fit line of the standard curve.

[2] = Theoretical body fluid level calculated from dose; settings: 69 mg/kg ÷ 0.7 L/kg ÷ 454.4 mg/mmol; mouse
Procedure: DCP at the highest dose tested in mice in this study, 69 mg/kg, yields the following theoretical body fluid level: [DCP]fluid=69 mg/kg÷0.7 L/kg÷454.4 mg/mmol=220 μM.

[3] = test system: serum cytokines/chemokines; assay: Serum cytokine/chemokine array in HBV transgenic mice; assay type: in vivo
Procedure: as §1
Liver or serum cytokine/chemokine array. Liver samples were prepared for the Q-Plex™ mouse cytokine/chemokine array (Quansys Biosciences, Logan, Utah) as described previously (Morrey J D, Molter N E, Taro B, Lay M & Fairman J. Efficacy of cationic lipid-DNA complexes (CLDC) on hepatitis B virus in transgenic mice. Antiviral Res 2008; 79:71-79).

[4] = test system: HBe antigen; assay: Sera HBeAg ELISA in HBV transgenic mice; assay type: in vivo; settings: males
Procedure: as §1
Sera HBeAg. Whole blood samples were obtained during necropsy by cardiac puncture, and processed for an HBeAg-specific ELISA (International Immuno Diagnostics, Foster City Calif.) (Money J D, Motter N E, Taro B, Lay M & Fairman J. Efficacy of cationic lipid-DNA complexes (CLDC) on hepatitis B virus in transgenic mice. Antiviral Res 2008; 79:71-79). Using the known PEI (Paul Ehrlich Institute) units for the calibrator, PEI units were formulated for the serial dilutions of the positive serum. A graph was generated, and extrapolation was used to assign a PEI unit value for each sample.

[5] = biological target: T1, IDO (Homo sapiens, UniProt P14902); assay: IDO inhibition in vitro with human PBMCs (kynurenine production); assay type: cell-based
T1 construct: endogenous in cells; host or cells: human PBMCs (peripheral blood mononuclear cells), unstimulated or PHA-stimulated
T1 sequence (P14902 whole entry): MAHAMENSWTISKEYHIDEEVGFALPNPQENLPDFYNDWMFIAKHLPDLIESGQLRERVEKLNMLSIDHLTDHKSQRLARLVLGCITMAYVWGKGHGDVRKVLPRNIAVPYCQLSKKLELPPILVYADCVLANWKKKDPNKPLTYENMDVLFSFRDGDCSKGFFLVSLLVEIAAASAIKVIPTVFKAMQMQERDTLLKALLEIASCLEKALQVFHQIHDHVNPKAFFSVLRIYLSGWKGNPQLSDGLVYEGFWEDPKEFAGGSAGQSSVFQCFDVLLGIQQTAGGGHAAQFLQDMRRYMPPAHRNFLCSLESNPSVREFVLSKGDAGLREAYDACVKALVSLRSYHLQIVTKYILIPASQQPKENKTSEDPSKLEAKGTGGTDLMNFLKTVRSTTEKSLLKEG
Procedure: The purpose of this in vitro study was to measure the IC50 values of IDO in PBMCs for 1) calcium pterin, CaCl2, and pterin to determine measurable synergistic effects between Ca^+2 and pterin, and 2) to compare these values with those of DCP for the assessment of relative IDO inhibitory strength. IC50 (μM) values for IDO inhibition by (1:4 mol:mol) calcium pterin, DCP, CaCl2, and pterin were determined in vitro with human PBMCs (both PHA-stimulated and unstimulated) by measuring kynurenine production as previously described (Winkler et al., 2006).

[6] = test system: indoleamine 2,3-dioxygenase (IDO); assay: Plasma tryptophan and kynurenine by HPLC (IDO activity), 1st experiment; assay type: in vivo, athymic nude (nu/nu) mice; settings: for Kynurenine / Tryptophan / Kyn/Trp: plasma; for Kynurenine / Tryptophan: HPLC; for Kyn/Trp: estimate of IDO activity
Procedure: Cytokine levels in EDTA plasma from the mice in the 1st experiment were determined by ELISA assay at Alta Analytical Laboratories (San Diego, Calif.) using a LINCOplex Kit (Linco Research). Tryptophan (Trp) and kynurenine (Kyn) concentrations were measured from EDTA plasma samples by high pressure liquid chromatography (HPLC) using 3-nitro-L-tyrosine as the internal standard (Widner et al., 1997). To estimate IDO activity, the kynurenine to tryptophan ratio (Kyn/Trp) was calculated and expressed as μmol kynurenine/mmol tryptophan (Wirleitner, 2003). The values from five mice in the 1st experiment are not included in the summary statistics given in Table 1 for the following reasons. One mouse from each of the four treatment groups was used to test the effects of mega dosing, i.e., with (1:4 mol:mol) calcium pterin at 100 mg/kg/day after Day 60 of treatment, and are excluded. Also excluded was one mouse from the (1:4 mol:mol) calcium pterin (7 mg/kg/day) group which expired suddenly a few days before blood was collected. Cytokine measurements <3.2 pg/ml are reported as n.d. (not detectable) because the standard curves used in the ELISA assays were not calibrated below that level.

[7] = test system: MDA-MB-231 human breast xenographs; settings: Moheno, 2004, cited from earlier work

## Nc1nc([O-])c2nccnc2n1.Nc1nc([O-])c2nccnc2n1.[Ca+2] [DCP, dipterinyl calcium pentahydrate]
[1]; 2.3 mg/(kg d)
  Liver HBV DNA (Southern), Female levels (mean ± SEM): 12.7 ± 1.9 pg/µg
  Liver HBV DNA (Southern), Male levels (mean ± SEM): 46.4 ± 10.8 pg/µg
[1]; 7.3 mg/(kg d)
  Liver HBV DNA (Southern), Female levels (mean ± SEM): 17.3 ± 3.5 pg/µg
  Liver HBV DNA (Southern), Male levels (mean ± SEM): 50.4 ± 10.3 pg/µg
[1]; 23.0 mg/(kg d)
  Liver HBV DNA (Southern), Female levels (mean ± SEM): 10.6 ± 1.6 pg/µg
  Liver HBV DNA (Southern), Male levels (mean ± SEM): 36.0 ± 10.6 pg/µg
[2]
  theoretical body fluid level [DCP]fluid: 220 µM
[3]; male HBV mice, 2.3 mg/(kg day)
  serum chemokine RANTES versus controls: significant decrease
[3]; serum, female, 7.3 mg/(kg d)
  IL-4, Female levels (mean ± SEM): 241 ± 53 rel. pg/ml
  IL-9, Female levels (mean ± SEM): 185 ± 28 rel. pg/ml
  IL-12, Female levels (mean ± SEM): 642 ± 11 rel. pg/ml
[3]; serum, male, 7.3 mg/(kg d)
  IL-4, Male levels (mean ± SEM): 87 ± 28 rel. pg/ml
  IL-9, Male levels (mean ± SEM): 112 ± 13 rel. pg/ml
  IL-12, Male levels (mean ± SEM): 575 ± 17 rel. pg/ml
[4]; 2.3 mg/(kg day)
  HBe antigen (ELISA) versus controls: significant treatment increases
[4]; 7.3 mg/(kg day)
  HBe antigen (ELISA) versus controls: significant treatment increases
[5]; PHA stimulated per Table 3
  IC50: 320 µM
[5]; unstimulated per Table 3
  IC50: 470 µM

## (1:4 mol:mol) calcium pterin [CaPterin]
[6]; 7 mg/kg/day
  Kynurenine: 1.2 ± 0.2 µM
  Tryptophan: 87.9 ± 14.6 µM
  Kyn/Trp: 14.1 ± 0.2 μmol/mmol
[6]; 21 mg/kg/day
  Kynurenine: 1.8 ± 0.3 µM
  Tryptophan: 106.5 ± 7.8 µM
  Kyn/Trp: 17.5 ± 3.8 μmol/mmol
[6]; stepwise regression
  plasma kynurenine response to dosage (ACIP model): increase
[7]; 7 mg/kg/day
  T/C ratio: 41%
[7]; nude mice
  antitumor efficacy against MDA-MB-231 human breast xenographs: significant antitumor efficacy
